Here are results for one compound from patent US9458165B2, “DOT1L inhibitors” (Dana-Farber Cancer Institute, Inc., priority 2014, dated 2016).

The data set can be described thus: Pharmacokinetic study, intravenous 5 mg/kg. It is filed as in vivo. To be noted: CD1 mice, 5 mg/kg, FIG. 8B. The procedure: Pharmacokinetic studies of the compound of Example 1 (i.e. CC-006) and previously disclosed compounds EPZ004777, CC001 (see U.S. 2014/0051654) and FED1 were performed in CD1 mice following intravenous administration, as detailed in Table 1.
Mean plasma concentration-time profiles representative of the compound of Example 1 (i.e. CC-006) after intravenous dosing (5 mg kg^−1) are shown in FIG. 8A (data represent the mean and s.d. (n=3)). […] From the pharmacokinetic properties, the compound of Example 1 (i.e. CC-006) has potential for use in treatment using intravenous administration due to its long half-life, as compared to subcutaneous administration.

As for `CC(C)N(C[C@H]1C[C@@H](n2ccc3c(N)ncnc32)[C@H](O)[C@@H]1O)[C@H]1C[C@@H](CCc2nc3cc(C(C)(C)C)ccc3[nH]2)C1` [CC001, reference compound], the “half-life (T1/2)” value is “longest half-life of the compounds tested”.
